Measurements as given in paper PMC6112376, “Comprehensive Analyses and Prioritization of Tox21 10K Chemicals Affecting Mitochondrial Function by in-Depth Mechanistic Studies” (Environmental Health Perspectives, 2018).
Where a name gives a salt, the structure may show the parent alone. Read-outs that look alike come from different tables or passages of the source.

Legend:
rat primary hepatocytes [1] = tested on: rat primary hepatocytes
HepG2 cells [2] = conditions: cited from earlier work; for IC50: read-out: MMP assays IC50 (µM), qHTS-HepG2
rat primary hepatocytes [3] = experiment: MMP assay in rat primary hepatocytes; conditions: for IC50: read-out: MMP assays IC50 (µM) Rat Hepatocytes
HepG2 cells [4] = conditions: for IC50: read-out: MMP assays IC50 (µM) HepG2
[5] = HepG2 cells, single number from one experiment

| SMILES | MMP assays efficacy (%) Rat Hepatocytes (rat primary hepatocytes [1]) | MMP assays efficacy (%) qHTS-HepG2 (HepG2 cells [2]) | IC50 (HepG2 cells [2]) [µM] | IC50 (rat primary hepatocytes [3]) [µM] | MMP assays efficacy (%) HepG2 (HepG2 cells [4]) | IC50 (HepG2 cells [4]) [µM] | MMP assays IC50 (µM) Rat Hepatocytes (rat primary hepatocytes [3]) | IC50 (rat primary hepatocytes [3]; Rattus norvegicus, Hepatocyte) [µM] | MMP assays IC50 (µM) HepG2 (HepG2 cells [4]) | MMP assays IC50 (µM) qHTS-HepG2 (HepG2 cells [2]) | IC50 (rat primary hepatocytes [3]; rat hepatocytes, mean ± SD of three experiments) [µM] | MMP assays efficacy (%) HepG2 (HepG2 cells [4]; [5]) [%] | IC50 (HepG2 cells [4]; [5]) [µM] |
| --- | --- | --- | --- | --- | --- | --- | --- | --- | --- | --- | --- | --- | --- |
| Cc1cccc(C)c1Nc1ncccc1C(=O)O [Metanixin] | -93±28% | -122±21% | 26 ± 2.11 | 21 ± 1.37 | -101% | 21.8 | – | – | – | – | – | – | – |
| Cc1oc(C)c(C(=O)Nc2ccccc2)c1C [Methfuroxam] | inactive | -69±12% | 25.8 ± 1.71 | – | -48% | 17.8 | inactive | – | – | – | – | – | – |
| COc1cc(Cl)ccc1Oc1ccc(Cl)cc1Cl [Methyl triclosan] | -95±27% | -79±13% | 25.5 ± 1.67 | 45.9 ± 14.7 | -95% | 39.8 | – | – | – | – | – | – | – |
| CN(C)c1ccc2nc3ccc(=[N+](C)C)cc-3sc2c1 [Methylene blue trihydrate] | -93±3% | -67±11% | 1.31 ± 0.79 | – | -69% | 4.82 | – | 7.29 ± 7.49 | – | – | – | – | – |
| CC(=O)O[Si](C)(OC(C)=O)OC(C)=O [Methylsilanetriyl triacetate] | inactive | -67±10% | 29.1 ± 16.4 | – | inactive | – | inactive | – | inactive | – | – | – | – |
| CCCCCCCCCCCCCC[n+]1ccc(C)cc1.[Cl-] [Miripirium chloride] | -106±27% | -86±9% | 16.4 ± 4.01 | 19.5 ± 2.25 | -121% | – | – | – | – | – | – | – | – |
| Cc1ccc(S(=O)(=O)NC2CCCCC2)cc1 [N-Cyclohexyl-4-methyl benzenesulfonamide] | -46±15% | -83±10% | 36.1 ± 21 | 38.1 ± 25.6 | inactive | – | – | – | inactive | – | – | – | – |
| CN(N=O)c1ccc([N+](=O)[O-])cc1 [N-Nitroso-N-methyl-4-nitroaniline] | -69+6% | inactive | – | 20 ± 16.6 | inactive | – | – | – | inactive | inactive | – | – | – |
| C[C@@H]1C/C=C/C=C/C=C/C=C/[C@H](O[C@@H]2O[C@H](C)[C@@H](O)[C@H](N)[C@@H]2O)C[C@@H]2O[C@](O)(C[C@@H](O)C[C@H]3O[C@@H]3/C=C/C(=O)O1)C[C@H](O)[C@H]2C(=O)O [Natamycin] | inactive | inactive | – | – | inactive | – | inactive | – | inactive | inactive | – | – | – |
| NC(=O)c1cc([N+](=O)[O-])cc([N+](=O)[O-])c1 [Nitromide] | inactive | inactive | – | – | inactive | – | inactive | – | inactive | inactive | – | – | – |
| N=C(N)NN=C(/C=C/c1ccc([N+](=O)[O-])o1)/C=C/c1ccc([N+](=O)[O-])o1 [Nitrovin] | -89±11% | -94±2% | 3.27 ± 0.57 | 16.4 ± 1.33 | -118% | 5.48 | – | – | – | – | – | – | – |
| O=C(NC(=O)c1c(F)cccc1F)Nc1ccc(OC(F)(F)C(F)OC(F)(F)F)c(Cl)c1 (stereo not drawn) [Novaluron] | inactive | inactive | – | – | inactive | – | inactive | – | inactive | inactive | – | – | – |
| CCCCCCCC/C=C\CCCCCCCC(=O)NCc1ccc(O)c(OC)c1 [Olvanil] | inactive | -74±8% | 13.5 ± 1.9 | – | inactive | – | inactive | – | inactive | – | – | – | – |
| Nc1ccc(/N=N/c2ccccc2)c(N)n1 [Phenazopyridine hydrochloride] | -59±26% | -74±20% | 15.7 ± 3.45 | – | inactive | – | – | 23.8 ± 1.93 | inactive | – | – | – | – |
| O=C1c2ccccc2C(=O)C1c1ccccc1 [Phenindione] | inactive | inactive | – | – | inactive | – | inactive | – | inactive | inactive | – | – | – |
| COc1cc([C@@H]2c3cc4c(cc3[C@H](O)[C@H]3COC(=O)[C@@H]23)OCO4)cc(OC)c1OC [Picropodophyllin;AXL-1717/NSC-36407] | inactive | -56±10% | 0.14 ± 0.02 | – | -58% | 0.0548 | inactive | – | – | – | – | – | – |

| SMILES | MMP assays efficacy (%) Rat Hepatocytes (rat primary hepatocytes [1]) | MMP assays efficacy (%) qHTS-HepG2 (HepG2 cells [2]) | IC50 (HepG2 cells [2]) [µM] | IC50 (rat primary hepatocytes [3]) [µM] | MMP assays efficacy (%) HepG2 (HepG2 cells [4]) | IC50 (HepG2 cells [4]) [µM] | MMP assays IC50 (µM) Rat Hepatocytes (rat primary hepatocytes [3]) | IC50 (rat primary hepatocytes [3]; Rattus norvegicus, Hepatocyte) [µM] | MMP assays IC50 (µM) HepG2 (HepG2 cells [4]) | MMP assays IC50 (µM) qHTS-HepG2 (HepG2 cells [2]) | IC50 (rat primary hepatocytes [3]; rat hepatocytes, mean ± SD of three experiments) [µM] | MMP assays efficacy (%) HepG2 (HepG2 cells [4]; [5]) [%] | IC50 (HepG2 cells [4]; [5]) [µM] |
| --- | --- | --- | --- | --- | --- | --- | --- | --- | --- | --- | --- | --- | --- |
| CCc1ccc(CCOc2ccc(CC3SC(=O)NC3=O)cc2)nc1 (stereo not drawn) [Pioglitazone hydrochloride] | -69+30% | inactive | – | – | inactive | – | – | 8.9 ± 9.2 | inactive | inactive | – | – | – |
| O=C(NCc1cccnc1)Nc1ccc([N+](=O)[O-])cc1 [Pyrinuron] | -108±48% | -87±26% | 26.3 ± 1.71 | 25.8 ± 10.1 | -81% | 28.2 | – | – | – | – | – | – | – |
| O=c1c(O)c(-c2ccc(O)c(O)c2)oc2cc(O)cc(O)c12 [Quercetin dihydrate] | -71±22% | -98±4% | 6.2 ± 2.32 | 5.83 ± 4.93 | -96% | 2.95 | – | – | – | – | – | – | – |
| O=C(c1ccc(OCCN2CCCCC2)cc1)c1c(-c2ccc(O)cc2)sc2cc(O)ccc12 [Raloxifene hydrochloride] | -87±14% | -98±9% | 6.69 ± 1.65 | 20.9 ± 7.23 | -127% | 7.94 | – | – | – | – | – | – | – |
| O=C(c1ccc(OCCN2CCCCC2)cc1)c1c(-c2ccc(O)cc2)sc2cc(O)ccc12 [Raloxifene] | -92±39% | -121±25% | 5.05 ± 3.99 | – | -96% | 17.8 | – | 22.4 ± 24.1 | – | – | – | – | – |
| c1ccc(C2(N3CCCC3)CCCCC2)cc1 [Rolicyclidine] | inactive | -97±15% | 22.3 ± 2.32 | – | inactive | – | inactive | – | inactive | – | – | – | – |
| O=[Se](O)O [Selenious acid] | -75±56% | -68±13% | 16 ± 22.8 | 44.1 ± 26.9 | inactive | – | – | – | inactive | – | – | – | – |
| CCCC[P+](CCCC)(CCCC)CCCC.[Cl-] [Tetrabutylphosphonium chloride] | -108+36% | inactive | – | 15.3 ± 5 | inactive | – | – | – | inactive | inactive | – | – | – |
| CCC[CH2][Sn]([CH2]CCC)([CH2]CCC)[CH2]CCC [Tetrabutyltin] | inactive | -100±1% | 5.66 ± 1.03 | – | -98% | 11.2 | inactive | – | – | – | – | – | – |
| CCCCCCCC[P+](CCCCCCCC)(CCCCCCCC)CCCCCCCC.[Br-] [Tetraoctylphosphonium bromide] | -90±21% | -91±6% | 0.18 ± 0.12 | 6.82 ± 2.23 | -105% | 0.32 | – | – | – | – | – | – | – |
| O=C(Nc1ccc(Br)cc1)c1cc(Br)cc(Br)c1O [Tribromosalan] | -96±35% | – | 1.12 | – | – | – | – | – | – | – | 0.55 ± 0.36 | -111 | 0.97 |
| CCCCCCCCCCCCCC[P+](CCCC)(CCCC)CCCC.[Cl-] [Tributyltetradecylphosphonium chloride] | -93±15% | -82±17% | 0.71 ± 0.15 | 7.66 ± 0.5 | – | 1.12 | – | – | – | – | – | – | – |
| CCO[Si](CC(C)C)(OCC)OCC [Triethoxy(2-methylpropyl)silane] | inactive | -66±5% | 28.9 ± 6.98 | – | -83% | 35.5 | inactive | – | – | – | – | – | – |
| CCCCCCCCCCCCCC[P+](CCCCCC)(CCCCCC)CCCCCC.[Br-] [Trihexyltetradecylphosphonium bromide] | -89±37% | -96±9% | 0.84 ± 0.24 | 18.8 ± 4.25 | -95% | 0.45 | – | – | – | – | – | – | – |
| CC(=O)[O][Sn]([c]1ccccc1)([c]1ccccc1)[c]1ccccc1 [Triphenyltin acetate] | -74±32% | -99±5% | 0.12 ± 0.04 | 24.1 ± 10.1 | -94% | 1.12 | – | – | – | – | – | – | – |
